For assay [1], the system named is Serratia marcescens MTCC 97. The method, then:
(§1) MICs for all the compounds were determined by broth microdilution assay, according to CLSI guidelines[16] as described previously. Haemolysis experiments were performed with fresh rabbit RBCs[11]. All the compounds were tested at a concentration of 128 µg/ml. To obtain rabbit blood, the experiments and the protocols were in accordance with the ethical standards of the Institutional Animal Ethics Committee (IAEC) of the Institute of Microbial Technology approved (Approval no. IAEC/17/11) by Committee for the Purpose of Control And Supervision of Experiments on Animals (CPCSEA, Government of India).

For assay [2], the system named is K. pneumoniae AH-16 (Col-R). Here is the method: as §1
In another assay the test system is K. pneumoniae P3R (M1-R). Particulars: broth microdilution, CLSI guidelines; M1-resistant mutant of ATCC 700603. Here is the method: as §1
A general note: Dilution methods test growth across graded concentrations, often in twofold steps.

The test system of assay [3] is A. baumannii ATCC 19606. The method, then: as §1
Assay [4] concerns Proteus mirabilis MTCC 1429. The method, then: as §1
The subject of assay [5] is K. pneumoniae AH-3 (Col-R). Here is the method:
as §1

The test system of assay [6] is P. aeruginosa ATCC 27853. Here is the method:
as §1

A further assay has as its system E. coli CF-23 (mcr-1). The method, then:
as §1

Assay [7] relates to K. pneumoniae ATCC 700603. The method, then:
as §1

A further assay relates to K. pneumoniae GMCH 13. In words: microbe, parasite or virus in culture. Here is the method:
(§2) Acinetobacter baumannii ATCC 19606, Pseudomonas aeruginosa ATCC 27853, K. pneumoniae ATCC 700603, K. pneumoniae P3R, K. pneumoniae GMCH 13 and K. pneumoniae GMCH 15 were grown in CA-MHB and adjusted to ~4 × 10^5 CFU/ml. 100 µl of fresh CA-MHB containing carbonyl cyanide m-chlorophenyl hydrazine (CCCP) or phenylalanine-arginine beta-naphthylamide (PAβN) (at a final concentration of their 1/4th of MIC or 1/8th of MIC) was added to the wells of a 96-well flat bottom plate. Tridecaptin M was diluted in a 2-fold manner. 100 µl of culture was added and the plates were incubated for 16 to 18 h at 37 °C and observed for MICs. The fold modulation in MICs of tridecaptin M was calculated by comparing the results in the presence or absence of CCCP and PAβN.

The subject of assay [8] is A. baumannii ATCC 19606. The assay is described as follows: microbe, parasite or virus in culture. The method, then:
as §2

The subject of a further assay is K. pneumoniae GMCH 15. The assay is described as follows: microbe, parasite or virus in culture. Here is the method:
as §2

The subject of assay [9] is K. pneumoniae P3R (Tri-M Resistant). The assay is described as follows: microbe, parasite or virus in culture. The method, then:
as §2

The subject of assay [10] is P. aeruginosa ATCC 27853. The assay is described as follows: microbe, parasite or virus in culture. The method, then: as §2
Assay [11] relates to K. pneumoniae ATCC 700603. The assay is described as follows: Synergy assay with efflux pump inhibitors. Format: cell-based. The method, then: as §2
Assay [12] has as its system efflux in A. baumannii ATCC 19606. Particulars: CCCP 4 mg/L, Nile Red 5 μM, energization with 50 mM glucose, fluorescence 552/636 nm.
Experimental: To assess the effect of CCCP on efflux in A. baumannii ATCC 19606, the Nile Red efflux assay was used[17]. The overnight grown culture was centrifuged at 3000 g for 10 min at room temperature. The pellet was resuspended in 20 mM potassium phosphate buffer (pH 7.0) containing 1 mM MgCl2 and washed twice with the same buffer. The cells were adjusted to an OD660 of 1.0 and the aliquots were transferred to a glass tubes containing CCCP at a final concentration of 4 mg/L. After 15 min, Nile Red was added to a final concentration of 5 μM, and the cell suspension was incubated in a shaker (140 rpm, 37 °C) for 3 h. The cells were kept at room temperature for 60 min and centrifuged for 5 min at 3000 g. The supernatant was discarded and the cell pellet was resuspended in assay buffer. Next, Nile Red efflux was immediately triggered by rapid energization with 50 mM glucose and the fluorescence was recorded at excitation and emission wavelength 552 nm and 636 nm, respectively, over a period of 5 min.
The mark [13] stands for this setting: broth microdilution, CLSI guidelines.
[14] abbreviates: ~4 × 10^5 CFU/ml, CA-MHB, 16 to 18 h, 37 °C.

In brackets after ≈: the same amount, converted by molar mass. Like-named read-outs stand apart in the source and are kept apart here. Square brackets hold non-standard residues; d marks the D form. Peptide text beside a SMILES is read from it. * marks the point of attachment. d(aIle) = CC[C@H](C)[C@@H](N)C(=O)O; X1 = CC[C@H](C)CCCCC(=O)*; dDab = NCC[C@@H](N)C(=O)O; βNA = c1ccc2cc(N*)ccc2c1; Dab = NCC[C@H](N)C(=O)O Bounds are passed on as bounds.

On to `CC[C@H](C)CCCCC(=O)NCC(=O)N[C@H](CCN)C(=O)NCC(=O)N[C@H](CO)C(=O)N[C@H](Cc1c[nH]c2ccccc12)C(=O)N[C@@H](CO)C(=O)N[C@@H](CCN)C(=O)N[C@H](CCN)C(=O)N[C@H](C(=O)N[C@@H](CCC(=O)O)C(=O)N[C@H](C(=O)N[C@@H](C(=O)N[C@@H](CO)C(=O)O)[C@@H](C)CC)[C@@H](C)CC)C(C)C` [M7] (X1-G[dDab]G[dS][dW]S[Dab][dDab]VEI[d(aIle)]S-OH), for which the “Peptide MIC” value was 8 µg/mL in assay [1]; 8 µg/mL in [2]; 16 µg/mL in the assay with K. pneumoniae P3R (M1-R); greater than 32 µg/mL in the assay with A. baumannii ATCC 19606 [3] (ATCC 19606); greater than 16 µg/mL in assay [4]; 8 µg/mL in assay [5]. For the same molecule, the “Peptide MIC” value with P. aeruginosa ATCC 27853 [6] (ATCC 27853) is greater than 32 µg/mL; in the assay with E. coli CF-23 (mcr-1), 16 µg/mL; in assay [7], 8 µg/mL.

On to `NC(N)=NCCC[C@H](NC(=O)[C@@H](N)Cc1ccccc1)C(=O)Nc1ccc2ccccc2c1` [PAβN, phenylalanine-arginine beta-naphthylamide, reference compound] (H-Phe-Arg-βNA), for which the MIC with K. pneumoniae GMCH 13 (Klebsiella pneumoniae, GMCH13, read-out: Intrinsic Activity, MIC) amounted to 256 µg/mL (≈ 573 µM); in the assay on A. baumannii ATCC 19606 [8] (Acinetobacter baumannii, ATCC19606, read-out: Intrinsic Activity, MIC), 64 µg/mL (≈ 143 µM); with K. pneumoniae GMCH 15 (Klebsiella pneumoniae, GMCH15, read-out: Intrinsic Activity, MIC), 256 µg/mL (≈ 573 µM); in [9] (Klebsiella pneumoniae, read-out: Intrinsic Activity, MIC), 256 µg/mL (≈ 573 µM); in the assay on P. aeruginosa ATCC 27853 [10] (Pseudomonas aeruginosa, ATCC27853, read-out: Intrinsic Activity, MIC), 64 µg/mL (≈ 143 µM); in assay [11] (Klebsiella pneumoniae, ATCC700603, read-out: Intrinsic Activity, MIC), 256 µg/mL.

`CC[C@H](C)CCCCC(=O)NCC(=O)N[C@H](CCN)C(=O)NCC(=O)N[C@H](CO)C(=O)N[C@H](Cc1c[nH]c2ccccc12)C(=O)N[C@@H](CO)C(=O)N[C@@H](CCN)C(=O)N[C@H](CCN)C(=O)N[C@H](C(=O)N[C@@H](CCC(=O)O)C(=O)N[C@H](C(=O)N[C@@H](C(=O)N[C@@H](CO)C(=O)O)C(C)C)[C@@H](C)CC)[C@@H](C)CC` [M6] (X1-G[dDab]G[dS][dW]S[Dab][dDab]IEI[dV]S-OH): the “Peptide MIC” value was 16 µg/mL in assay [1]; 2 µg/mL in assay [2]; 16 µg/mL in the assay on K. pneumoniae P3R (M1-R); greater than 32 µg/mL in the assay on A. baumannii ATCC 19606 [3] (ATCC 19606); greater than 16 µg/mL in assay [4]; 4 µg/mL in [5]. For the same molecule, the results for the “Peptide MIC” value (in the assay with P. aeruginosa ATCC 27853 [6] (ATCC 27853); with E. coli CF-23 (mcr-1); in [7]) were greater than 32 µg/mL, 4 µg/mL and 4 µg/mL, respectively.

On to `CC[C@H](C)CCCCC(=O)NCC(=O)N[C@H](CCN)C(=O)NCC(=O)N[C@H](CO)C(=O)N[C@H](Cc1ccccc1)C(=O)N[C@@H](CO)C(=O)N[C@@H](CCN)C(=O)N[C@H](CCN)C(=O)N[C@H](C(=O)N[C@@H](CCC(=O)O)C(=O)N[C@H](C(=O)N[C@@H](C(=O)N[C@@H](CO)C(=O)O)[C@@H](C)CC)[C@@H](C)CC)[C@@H](C)CC` [M8] (X1-G[dDab]G[dS][dF]S[Dab][dDab]IEI[d(aIle)]S-OH), for which the “Peptide MIC” value was 16 µg/mL in [1]; 4 µg/mL in assay [2]; 128 µg/mL with K. pneumoniae P3R (M1-R); 128 µg/mL with A. baumannii ATCC 19606 [3] (setting [13]); greater than 16 µg/mL in assay [4]; 8 µg/mL in assay [5]. The results for the “Peptide MIC” value (in the assay on P. aeruginosa ATCC 27853 [6] (setting [13]); in the assay on E. coli CF-23 (mcr-1); in assay [7]) were greater than 128 µg/mL, 4 µg/mL and 4 µg/mL, respectively.

With “carbonyl cyanide m-chlorophenyl hydrazine [CCCP, reference compound]”, the “Intrinsic Activity; MIC” value was found to be 32 µg/mL with K. pneumoniae GMCH 13 (setting [14]); 64 µg/mL in the assay with A. baumannii ATCC 19606 [8] (setting [14]); 64 µg/mL with K. pneumoniae GMCH 15 (setting [14]); 128 µg/mL in [9] (setting [14]); 64 µg/mL with P. aeruginosa ATCC 27853 [10] (setting [14]); 128 µg/mL in [11] (setting [14]). Further, in assay [12], the “effect on efflux of Nile red dye” value was “inhibited the efflux of Nile red dye”.

On to `CC[C@H](C)CCCCC(=O)NCC(=O)N[C@H](CCN)C(=O)NCC(=O)N[C@H](CO)C(=O)N[C@H](Cc1c[nH]c2ccccc12)C(=O)N[C@@H](CO)C(=O)N[C@@H](CCN)C(=O)N[C@H](CCN)C(=O)N[C@H](C(=O)N[C@@H](CCC(=O)O)C(=O)N[C@H](C(=O)N[C@@H](C(=O)N[C@@H](CO)C(=O)O)C(C)C)C(C)C)[C@@H](C)CC` [M2] (X1-G[dDab]G[dS][dW]S[Dab][dDab]IEV[dV]S-OH), for which the “Peptide MIC” value in assay [1] was greater than 16 µg/mL; in assay [2] it was greater than 16 µg/mL; in the assay on K. pneumoniae P3R (M1-R) it was greater than 32 µg/mL; in the assay with A. baumannii ATCC 19606 [3] (ATCC 19606) it was greater than 32 µg/mL; in assay [4], greater than 16 µg/mL; in assay [5], 8 µg/mL. For the same molecule, the entries for the “Peptide MIC” value (in the assay on P. aeruginosa ATCC 27853 [6] (ATCC 27853); in the assay with E. coli CF-23 (mcr-1); in assay [7]) were greater than 32 µg/mL, 16 µg/mL and 8 µg/mL, respectively.

As for `CC[C@H](C)CCCCC(=O)NCC(=O)N[C@H](CCN)C(=O)NCC(=O)N[C@H](CO)C(=O)N[C@H](Cc1ccccc1)C(=O)N[C@@H](CO)C(=O)N[C@@H](CCN)C(=O)N[C@H](CCN)C(=O)N[C@H](C(=O)N[C@@H](CCC(=O)O)C(=O)N[C@H](C(=O)N[C@@H](C(=O)N[C@@H](CO)C(=O)O)C(C)C)[C@@H](C)CC)[C@@H](C)CC` [M5] (X1-G[dDab]G[dS][dF]S[Dab][dDab]IEI[dV]S-OH), the “Peptide MIC” value in assay [1] is 8 µg/mL; in assay [2], 16 µg/mL; in the assay with K. pneumoniae P3R (M1-R), 16 µg/mL; in the assay on A. baumannii ATCC 19606 [3] (ATCC 19606), greater than 32 µg/mL; in assay [4] it was 16 µg/mL; in [5] it was 16 µg/mL. Also, the entries for the “Peptide MIC” value (in the assay with P. aeruginosa ATCC 27853 [6] (ATCC 27853); in the assay with E. coli CF-23 (mcr-1); in [7]) were greater than 32 µg/mL, 16 µg/mL and 16 µg/mL, respectively.

The values above are taken from article PMC6906472, “Purification and biological activity of natural variants synthesized by tridecaptin M gene cluster and in vitro drug-kinetics of this antibiotic class” (Scientific Reports, 2019).
